From US9388143B2, “Polymorph of N-(3-{[(2Z)-3-[(2-chloro-5-methoxyphenyl)amino]quinoxalin-2(1H)-ylidene]sulfamoyl}phenyl)-2-methylalaninamide” (Sanofi, priority 2012, dated 2016)

What was measured:
Type in all cases: physicochemical
[1] = Stability of polymorph E in competition with the THF solvated form (slurry in THF/ethanol)
Protocol: (§1) To verify the stability of polymorph E, trials were performed at the laboratory scale, by putting polymorph E in competition with compound (I) (polymorph A) and with the THF solvated form in mixtures of solvent.
Polymorph E was also put in competition with the solvated form of compound (I) obtained in from THF. A mixture of the THF solvated form and polymorph E (50/50, w/w) was left under stirring for 24 hours in 40V of THF/ethanol (50/50, v/v) at room temperature.

[2] = Stability of polymorph E in competition with polymorph A (slurry in solvent, X-ray powder diffraction)
Protocol: as §1
Polymorph E was first put in competition with compound (I) (polymorph A) (mixture 50/50, w/w) in ethanol/THF 80/20% v/v. This stability test was performed at ambient temperature under magnetic stirring for 24 hours, then the solid was filtered, dried, then analyzed by X-ray powder diffraction. […] Similar experiments were performed in ethanol 100% at various concentrations.
Polymorph E stability also was tested as a suspension in 100% ethanol at room temperature, seeded with compound (I) (polymorph A).

[3] = Differential scanning calorimetry, relative stability of polymorphs A and E by the rules of Burger; conditions: from DSC melting point and enthalpy of fusion
[4] = under the competition conditions described

solid form present at the end of competition ([1]; mixture 50/50 w/w with THF solvated form, 40V THF/ethanol 50/50 v/v, room temperature, stirring 24 hours): only polymorph E was present
relative stability versus THF-solvated form [1, 4]: more stable than the THF-solvated form
solid form found after competition ([2]; competition with polymorph A, ethanol 100%, various concentrations): Polymorph E was always obtained
solid form found by X-ray powder diffraction after competition ([2]; mixture 50/50 w/w with polymorph A, ethanol/THF 80/20% v/v, ambient temperature, magnetic stirring, 24 hours): Polymorph E was obtained
solid form found by X-ray powder diffraction after seeding ([2]; suspension in 100% ethanol, room temperature, seeded with polymorph A, 24 hours): only polymorph E
thermodynamic stability relationship between polymorphs A and E (monotropic) [3]: the more stable one
Compound: COc1ccc(Cl)c(Nc2nc3ccccc3nc2NS(=O)(=O)c2cccc(NC(=O)C(C)(C)N)c2)c1 [Polymorph E, N-(3-{[(2Z)-3-[(2-chloro-5-methoxyphenyl)amino]quinoxalin-2(1H)-ylidene]sulfamoyl}phenyl)-2-methylalaninamide]
relative stability versus polymorph A [2, 4]: more stable than the polymorph A of compound (I)
